Measurements from patent publication US20100179176A1, “V3 ANTAGONISTS FOR THE TREATMENT OR PREVENTION OF CHRONIC PAIN” (N.V. Organon, priority 2007, published 2010).

Columns and labels:
[1] = system: tail flick latency in mice; experiment: Mouse tail flick assay of acute thermal pain; format: in vivo; settings: for Tail Flick Latency: mouse; for Effect on tail flick latencies (in words): oral administration, three doses, mouse, 20, 40 and 60 min post administration
Protocol: The tail flick test is used to evaluate the antinociceptive activity of test compounds in mice. Animals are placed on the tail flick apparatus and their tails exposed to a focused beam of radiant heat. The mice react to the noxious thermal stimulus by flicking their tail away from the heat source. The time taken for these responses to occur is measured (latency; s).
Experiments were performed using male ICR mice weighing (25-32 g). In brief, animals were held in place on the tail flick apparatus (Ugo Basile, Italy) by means of a perspex restrainer and their tail was positioned over the heat source. The latency to flick the tail from the radiant heat source focussed 2.5 cm from the tip was determined before (baseline readings) and at regular intervals after administration of the vehicle or test compounds (compound 1, 5.6-55.6 μmol/kg p.o.; compound 2, 5.3-52.6 μmol/kg p.o.). A 12 seconds cut-off was employed to prevent tissue damage.
Data are expressed as mean±s.e.m. and compared between groups using the Kruskal-Wallis one-way analysis of variance, a non-parametric statistical test. If statistical significance (P<0.05) is observed with this test, the vehicle group and each of the treatment groups is compared using the non-parametric Dunn's test.

[2] = system: mechanical allodynia induced by spinal nerve ligation in rats; experiment: Rat (Chung) model of neuropathic pain, von Frey paw withdrawal threshold; format: in vivo; settings: for Withdrawal threshold (g) at peak effect: spinal nerve ligation; for Effect on mechanical allodynia (in words): oral administration, three doses; for ED50: po, read-out: ED50 at peak effect (dose at which allodynia is reversed by 50%)
Protocol: In this model, mechanical allodynia is induced by tight ligation of the left L5 spinal nerve.
Male Wistar rats (150-175 g body weight at time of surgery) were employed in the study. Rats were placed on an elevated (˜40 cm) mesh floor in perspex boxes and the rats' withdrawal threshold to a mechanical stimulus (calibrated von Frey filaments) was measured using filaments of increasing force (2.6-167 mN). The von Frey filaments were applied to the plantar surface of the paw and the thershold response was determined using the up and down method. A positive response was noted if the paw was sharply withdrawn. A cut-off of 15 g was selected as the upper limit for testing. Following baseline measurements each animal was anaesthetised and the L5 spinal nerve tightly ligated. The animals were allowed to recover from the surgery for a period of at least three days. On the day of drug administration the paw withdrawal thresholds were re-measured (0 min). Immediately after this reading, the rats were dosed orally with vehicle or test compound. Readings were then made at intervals of 30, 60, 120, 180 and 240 min after compound administration.
Data were expressed as mean±s.e.m. The time of maximum effect for each animal in the top dose group was determined and these values averaged to calculate the mean time of maximum effect. For analytical purposes the time of maximum effect, tmax was defined as the time point closest to this averaged value. Data at tmax were compared between groups using the Kruskal-Wallis one-way analysis of variance, a non-parametric statistical test. Each of the treatment groups were then compared against the vehicle group, using the non-parametric Dunn's test. The ED50 (dose at which allodynia is reversed by 50%) value was also calculated at tmax using non linear regression (sigmoidal dose response; variable slope) with constants of 0 and 15 g (cut-off) for the bottom and top, respectively (XLFit software).

[3] = system: mechanical hyperalgesia induced by complete Freund's adjuvant in rats; experiment: Rat CFA model of inflammatory pain, Randall-Sellito paw withdrawal threshold; format: in vivo; settings: for % Attenuation of hyperalgesia (peak effect): 7 days after CFA, peak effect 30 min
Protocol: In this model, inflammation is induced by subcutaneous injection of complete Freund's adjuvant (CFA) into the hind paw. The associated mechanical hyperalgesia is quantified by measuring the reduction in paw withdrawal threshold (PWT) to a mechanical compression of the paw.
Experiments were in male Wistar rats weighing (130-180 g). In brief, the rats' paw withdrawal threshold (PWT) to a mechanical compression of the hind paw was measured (baseline reading) using a Randall-Sellito apparatus (Ugo Basile). A cut-off of 200 g was employed to minimise tissue damage to the paw. The animals were then lightly anaesthetised with isoflurane (1-3%) and CFA (0.1 ml·paw^−1) injected subcutaneously (s.c.) into the plantar surface of the left hind paw. The animals were then returned to their home cage and left for the inflammation to develop.
Seven days after CFA injection, PWT's were re-measured (0 min) and immediately after this reading, rats were dosed orally with either vehicle or compound 2 (3-30 mg/kg). Readings were then made at 30 min and 2 h post drug administration.
Data were plotted as mean±s.e.m. and compared between groups using the Kruskal-Wallis one-way analysis of variance, a non-parametric statistical test. […] The percent attenuation of mechanical hyperalgesia is calculated at time of peak effect (tmax)

[4] = system: tolerance development to the analgesic activity of morphine; settings: Database WPI, Derwent abstract; cited from earlier work

## COc1cc(-c2nc3ccc(-c4cccc(CN(C)C)c4)cc3c(=O)n2CC(=O)NC(C)C)ccc1F [Compound 1, 2-[6-(3-Dimethylaminomethylphenyl)-2-(4-fluoro-3-methoxyphenyl)-4-oxo-4H-quinazolin-3-yl]-N-isopropylacetamide]
[1]; 5.6 μmol/kg p.o., 20 min post dose
  Tail Flick Latency: 3.5 ± 0.4 s
[1]; 5.6 μmol/kg p.o., 40 min post dose
  Tail Flick Latency: 3.4 ± 0.2 s
[1]; 5.6 μmol/kg p.o., 60 min post dose
  Tail Flick Latency: 3.5 ± 0.2 s
[1]; 18.6 μmol/kg p.o., 20 min post dose
  Tail Flick Latency: 3.4 ± 0.3 s
[1]; 18.6 μmol/kg p.o., 40 min post dose
  Tail Flick Latency: 3.5 ± 0.2 s
[1]; 18.6 μmol/kg p.o., 60 min post dose
  Tail Flick Latency: 3.1 ± 0.2 s
[1]; 55.6 μmol/kg p.o., 20 min post dose
  Tail Flick Latency: 3.3 ± 0.3 s
[1]; 55.6 μmol/kg p.o., 40 min post dose
  Tail Flick Latency: 3.5 ± 0.3 s
[1]; 55.6 μmol/kg p.o., 60 min post dose
  Tail Flick Latency: 3.3 ± 0.2 s
[1]
  Effect on tail flick latencies (in words): had no effect on tail flick latencies
[2]; 5.6 μmol/kg p.o., peak effect 120 min
  Withdrawal threshold (g) at peak effect: 4.6 ± 0.6 g
[2]; 18.6 μmol/kg p.o., peak effect 120 min
  Withdrawal threshold (g) at peak effect: 5.6 ± 1.1 g
[2]; 55.6 μmol/kg p.o., peak effect 120 min
  Withdrawal threshold (g) at peak effect: 11.4 ± 0.7 g
[2]
  Effect on mechanical allodynia (in words): reversed mechanical allodynia in a dose-dependent fashion
[2]; p.o.
  Time of peak anti-allodynic effect post drug administration: 120 min
[2]; at tmax
  ED50: 21.2 µmol/kg

## CC(C)NC(=O)Cn1c(-c2cccc(Cl)c2)nc2ccc(OCCCN3CCCCC3)cc2c1=O [Compound 2]
[1]; 5.3 μmol/kg p.o., 20 min post dose
  Tail Flick Latency: 3.4 ± 0.2 s
[1]; 5.3 μmol/kg p.o., 40 min post dose
  Tail Flick Latency: 3.7 ± 0.2 s
[1]; 5.3 μmol/kg p.o., 60 min post dose
  Tail Flick Latency: 3.6 ± 0.1 s
[1]; 17.3 μmol/kg p.o., 20 min post dose
  Tail Flick Latency: 3.6 ± 0.1 s
[1]; 17.3 μmol/kg p.o., 40 min post dose
  Tail Flick Latency: 3.6 ± 0.1 s
[1]; 17.3 μmol/kg p.o., 60 min post dose
  Tail Flick Latency: 3.1 ± 0.1 s
[1]; 52.6 μmol/kg p.o., 20 min post dose
  Tail Flick Latency: 3.5 ± 0.2 s
[1]; 52.6 μmol/kg p.o., 40 min post dose
  Tail Flick Latency: 3.5 ± 0.2 s
[1]; 52.6 μmol/kg p.o., 60 min post dose
  Tail Flick Latency: 3.2 ± 0.2 s
[1]
  Effect on tail flick latencies (in words): had no effect on tail flick latencies
[2]; 5.3 μmol/kg p.o., peak effect 30 min
  Withdrawal threshold (g) at peak effect: 4.8 ± 1.0 g
[2]; 17.3 μmol/kg p.o., peak effect 30 min
  Withdrawal threshold (g) at peak effect: 6.7 ± 1.1 g
[2]; 52.6 μmol/kg p.o., peak effect 30 min
  Withdrawal threshold (g) at peak effect: 9.8 ± 1.8 g
[2]
  Effect on mechanical allodynia (in words): reversed mechanical allodynia in a dose-dependent fashion
[2]; p.o.
  Time of peak anti-allodynic effect post drug administration: 30 min
[2]; p.o., at tmax
  ED50 at peak effect (dose at which allodynia is reversed by 50%): 21.0 µmol/kg
[3]; 5.7 μmol/kg p.o.
  % Attenuation of hyperalgesia (peak effect): 31.5 ± 9.4%
[3]; 18.9 μmol/kg p.o.
  % Attenuation of hyperalgesia (peak effect): 43.1 ± 8.6 %
[3]; 56.6 μmol/kg p.o.
  % Attenuation of hyperalgesia (peak effect): 84.4 ± 12.0 %
[3]; oral administration 5.7, 18.9 or 56.6 μmol/kg
  Effect on mechanical hyperalgesia induced by CFA (in words): reversed mechanical hyperalgesia induced by CFA in a dose-dependent fashion
[3]; p.o., CFA
  ED50 at peak effect (mechanical hyperalgesia): 19.2 µmol/kg
  Time of peak anti-algesic effect post drug administration: 30 min

## COc1ccc(S(=O)(=O)N2C(=O)[C@@](c3ccccc3OC)(N3C[C@H](O)C[C@H]3C(=O)N(C)C)c3cc(Cl)ccc32)c(OC)c1 [Compound 3, reference compound]
[4]
  Effect on tolerance development to the analgesic activity of morphine (in words): inhibits the tolerance development to the analgesic activity of morphine
[2]; 3 μmol/kg p.o., peak effect 180 min
  Withdrawal threshold (g) at peak effect: 5.0 ± 1.0 g
[2]; 10 μmol/kg p.o., peak effect 180 min
  Withdrawal threshold (g) at peak effect: 6.9 ± 1.3 g
[2]; 30 μmol/kg p.o., peak effect 180 min
  Withdrawal threshold (g) at peak effect: 10.1 ± 1.4 g
[2]
  Effect on mechanical allodynia (in words): reversed mechanical allodynia in a dose-dependent fashion
[2]; p.o.
  Time of peak anti-allodynic effect post drug administration: 180 min
[2]; at tmax
  ED50: 10.6 µmol/kg
